Assay results as given in PMC4529466, “Intradermal insulin infusion achieves faster insulin action than subcutaneous infusion for 3-day wear” (Drug Delivery and Translational Research, 2015).

System: blood glucose
Experiment: Postprandial blood glucose pharmacodynamics after meal bolus, 3-day ID vs SC infusion
Format: in vivo, human (T1DM patients)
Settings: SC; for BGavg0–1 / BGmax0–1 / ΔAUC-BG0–1 / ΔBGmax0–1 / BGavg0–1.5 / BGmax0–1.5 / ΔAUC-BG0–1.5 / ΔBGmax0–1.5 / BGavg0–2 / BGmax0–2 / ΔAUC-BG0–2 / ΔBGmax0–2 / BGavg0–4 / BGmax0–4 / ΔAUC-BG0–4 / ΔBGmax0–4 / BG1 / ΔBG1 / BG1.5 / ΔBG1.5 / BG2 / ΔBG2 / BG4 / ΔBG4: mean ± SD; for BG1 / ΔBG1: at 1 h; for BG1.5 / ΔBG1.5: at 1.5 h; for BG2 / ΔBG2: at 2 h; for BG4 / ΔBG4: at 4 h
From the text: This was a single center, open-label, two-period crossover study, randomized by infusion order, in T1DM patients on continuous subcutaneous insulin infusion (CSII). The protocol was approved by an independent ethics committee (Ethikkommission der Ärztekammer Nordrhein, Düsseldorf, Germany), appropriate regulatory bodies (German Federal Institute for Drugs and Medical Devices (BfArM)), and conducted in compliance with good clinical practice (GCP), the Declaration of Helsinki, and applicable regulatory requirements.
The study was completed over a multi-week period consisting of three study visits: a screening visit (V1) and two interventional visits (V2 and V3). After establishing eligibility and enrollment, patients received treatment during two interventional visits: one SC and one ID basal/bolus infusion of insulin aspart (NovoRapid® U-100, Novo Nordisk, Copenhagen, Denmark) administered over 3 days in a randomized order.
Individual meal bolus doses were determined based on patient self-reported insulin to carbohydrate ratios and insulin sensitivity, historical self-reported insulin usage for meal coverage, and clinician review and adjustment of insulin usage during the in-clinic BG stabilization period the evening prior to the first morning meal. Basal insulin infusion rates were initiated based on the patient’s known daily delivery profile and could be adjusted by the clinician to maintain levels within 70–160 mg/dL according to a predetermined sliding scale and hourly changes in glycemia. A continuous glucose monitor (Seven Plus®, DexCom Inc., San Diego, CA) calibrated per manufacturer’s recommendations was applied to continuously monitor glycemia as a safety measure, in addition to periodic blood sampling for BG determination.
After maintaining targeted blood glucose range during the preceding night, bolus insulin doses were administered via the respective infusion catheter prior to standardized breakfast and lunch test meals on each of the three treatment days. Each meal insulin bolus was calculated based on the patient’s insulin sensitivity and previous hours change in BG per sliding scale then delivered immediately prior to breakfast (t = 0 min) and lunch (t = 360 min) consumption. Breakfast was a high glycemic index (60 g carbohydrates) solid meal, and lunch was a mixed meal based on the individual’s calculated daily energy intake and equivalent in caloric composition by day. Breakfast and lunch meals were consumed within 15 min followed by serial blood sampling with BG monitoring for a period of 6 and 4 h, respectively. Patients were asked to remain sedentary for 2 h after meals. Identical study procedures were utilized for the remaining dosing visit days (Fig. 2).
To assess insulin absorption kinetics and glycemic response, blood samples for measurements of insulin aspart and blood glucose in serum were drawn at predefined time points throughout dosing visits. Serial samples for safety BG determination, but not PK analysis, were obtained at a minimum every 2 h. Meal PK/PD analysis samples were acquired immediately pre-bolus and for 4–6 h post-bolus for breakfast and lunch meals, with a higher frequency during the first 2 h to capture insulin and BG peak levels {Post-bolus breakfast time points (min): 0, 10, 15, 20, 25, 30, 35, 40, 45, 50, 55, 60, 65, 70, 80, 90, 120, 150, 180, 210, 240, 300, 330, 360; Post-bolus lunch time points (min): 0, 10, 20, 30, 40, 50, 60, 70, 80, 90, 120, 180, 240, 300}. Sampling times were based on previous clinical study experience for bolus microneedle insulin delivery and had increased sampling frequency in the first 90 min post-delivery to capture the rapid insulin peaks from microneedle ID delivery. Blood samples for evening meal and basal period PK assessment could not be obtained due to daily blood draw volume limits for patient safety. Serum insulin aspart was measured by a third party laboratory (IKFE GmbH, Mainz, Germany) using a validated insulin assay (Invitron ELISA kit). […]

[1] = 0–1 h, Days 1–3 combined, all test meals, n = 150–156
[2] = 0–1 h, across all study days and meals
[3] = 0–1.5 h, Days 1–3 combined, all test meals, n = 150–156
[4] = 0–1.5 h, across all study days and meals
[5] = 0–2 h, Days 1–3 combined, all test meals, n = 150–156
[6] = 0–2 h, across all study days and meals
[7] = 0–4 h, Days 1–3 combined, all test meals, n = 150–156
[8] = Days 1–3 combined, all test meals, n = 150–156

Substance: insulin aspart
- BG at 1 h: 165
- BGavg0–1 (0–1 h, Day 1, across meals): 138 ± 33.4 mg/dL
- BGmax0–1 (0–1 h, Day 1, across meals): 166 ± 40.1 mg/dL
- ΔAUC-BG0–1 (0–1 h, Day 1, across meals): 29.1 ± 25.7 mg·h/dL
- ΔBGmax0–1 (0–1 h, Day 1, across meals): 57.1 ± 36.0 mg/dL
- BGavg0–1 (0–1 h, Day 2, across meals): 147 ± 32.5 mg/dL
- BGmax0–1 (0–1 h, Day 2, across meals): 176 ± 39.2 mg/dL
- ΔAUC-BG0–1 (0–1 h, Day 2, across meals): 26.7 ± 20.9 mg·h/dL
- ΔBGmax0–1 (0–1 h, Day 2, across meals): 55.8 ± 31.0 mg/dL
- BGavg0–1 (0–1 h, Day 3, across meals): 145 ± 30.3 mg/dL
- BGmax0–1 (0–1 h, Day 3, across meals): 175 ± 37.9 mg/dL
- ΔAUC-BG0–1 (0–1 h, Day 3, across meals): 26.5 ± 19.5 mg·h/dL
- ΔBGmax0–1 (0–1 h, Day 3, across meals): 57.2 ± 33.0 mg/dL
- BGavg0–1 [1]: 143 ± 32.2 mg/dL
- BGmax0–1 [1]: 172 ± 39.2 mg/dL
- ΔAUC-BG0–1 [1]: 27.5 ± 22.2 mg·h/dL
- ΔBGmax0–1 [1]: 56.7 ± 33.3 mg/dL
- Intra-subject variability of BGavg [2]: 18.2 %CV
- Intra-subject variability of BGmax [2]: 18.1 %CV
- BGavg0–1.5 (0–1.5 h, Day 1, across meals): 144 ± 36.0 mg/dL
- BGmax0–1.5 (0–1.5 h, Day 1, across meals): 174 ± 43.6 mg/dL
- ΔAUC-BG0–1.5 (0–1.5 h, Day 1, across meals): 53.4 ± 46.7 mg·h/dL
- ΔBGmax0–1.5 (0–1.5 h, Day 1, across meals): 65.0 ± 42.3 mg/dL
- BGavg0–1.5 (0–1.5 h, Day 2, across meals): 154 ± 35.3 mg/dL
- BGmax0–1.5 (0–1.5 h, Day 2, across meals): 182 ± 41.7 mg/dL
- ΔAUC-BG0–1.5 (0–1.5 h, Day 2, across meals): 50.8 ± 40.9 mg·h/dL
- ΔBGmax0–1.5 (0–1.5 h, Day 2, across meals): 61.6 ± 33.2 mg/dL
- BGavg0–1.5 (0–1.5 h, Day 3, across meals): 152 ± 33.4 mg/dL
- BGmax0–1.5 (0–1.5 h, Day 3, across meals): 182 ± 40.0 mg/dL
- ΔAUC-BG0–1.5 (0–1.5 h, Day 3, across meals): 51.3 ± 39.8 mg·h/dL
- ΔBGmax0–1.5 (0–1.5 h, Day 3, across meals): 63.9 ± 36.8 mg/dL
- BGavg0–1.5 [3]: 150 ± 35.0 mg/dL
- BGmax0–1.5 [3]: 179 ± 41.8 mg/dL
- ΔAUC-BG0–1.5 [3]: 51.9 ± 42.5 mg·h/dL
- ΔBGmax0–1.5 [3]: 63.6 ± 37.6 mg/dL
- Intra-subject variability of BGavg [4]: 18.2 %CV
- Intra-subject variability of BGmax [4]: 17.9 %CV
- BGavg0–2 (0–2 h, Day 1, across meals): 147 ± 39.3 mg/dL
- BGmax0–2 (0–2 h, Day 1, across meals): 178 ± 49.1 mg/dL
- ΔAUC-BG0–2 (0–2 h, Day 1, across meals): 77.0 ± 73.2 mg·h/dL
- ΔBGmax0–2 (0–2 h, Day 1, across meals): 69.7 ± 49.0 mg/dL
- BGavg0–2 (0–2 h, Day 2, across meals): 157 ± 38.2 mg/dL
- BGmax0–2 (0–2 h, Day 2, across meals): 186 ± 43.4 mg/dL
- ΔAUC-BG0–2 (0–2 h, Day 2, across meals): 73.6 ± 63.3 mg·h/dL
- ΔBGmax0–2 (0–2 h, Day 2, across meals): 65.5 ± 34.7 mg/dL
- BGavg0–2 (0–2 h, Day 3, across meals): 155 ± 36.1 mg/dL
- BGmax0–2 (0–2 h, Day 3, across meals): 186 ± 42.4 mg/dL
- ΔAUC-BG0–2 (0–2 h, Day 3, across meals): 75.1 ± 63.0 mg·h/dL
- ΔBGmax0–2 (0–2 h, Day 3, across meals): 68.1 ± 40.3 mg/dL
- BGavg0–2 [5]: 153 ± 38.0 mg/dL
- BGmax0–2 [5]: 183 ± 45.1 mg/dL
- ΔAUC-BG0–2 [5]: 75.3 ± 66.5 mg·h/dL
- ΔBGmax0–2 [5]: 67.8 ± 41.8 mg/dL
- Intra-subject variability of BGavg [6]: 19.3 %CV
- Intra-subject variability of BGmax [6]: 18.5 %CV
- BGavg0–4 (0–4 h, Day 1, across meals): 142 ± 41.2 mg/dL
- BGmax0–4 (0–4 h, Day 1, across meals): 179 ± 44.4 mg/dL
- ΔAUC-BG0–4 (0–4 h, Day 1, across meals): 133 ± 160 mg·h/dL
- ΔBGmax0–4 (0–4 h, Day 1, across meals): 76.5 ± 54.6 mg/dL
- BGavg0–4 (0–4 h, Day 2, across meals): 155 ± 44.0 mg/dL
- BGmax0–4 (0–4 h, Day 2, across meals): 193 ± 49.3 mg/dL
- ΔAUC-BG0–4 (0–4 h, Day 2, across meals): 140 ± 157 mg·h/dL
- ΔBGmax0–4 (0–4 h, Day 2, across meals): 72.3 ± 40.0 mg/dL
- BGavg0–4 (0–4 h, Day 3, across meals): 156 ± 40.1 mg/dL
- BGmax0–4 (0–4 h, Day 3, across meals): 194 ± 41.7 mg/dL
- ΔAUC-BG0–4 (0–4 h, Day 3, across meals): 154 ± 148 mg·h/dL
- ΔBGmax0–4 (0–4 h, Day 3, across meals): 76.2 ± 40.4 mg/dL
- BGavg0–4 [7]: 151 ± 42.0 mg/dL
- BGmax0–4 [7]: 188 ± 45.4 mg/dL
- ΔAUC-BG0–4 [7]: 142 ± 155 mg·h/dL
- ΔBGmax0–4 [7]: 75.0 ± 45.6 mg/dL
- Intra-subject variability of BGmax (0–4 h, across all study days and meals): 18.0 %CV
- BG1 (Day 1, across meals): 158 ± 43.8 mg/dL
- ΔBG1 (Day 1, across meals): 49.0 ± 41.5 mg/dL
- BG1 (Day 2, across meals): 169 ± 40.9 mg/dL
- ΔBG1 (Day 2, across meals): 48.8 ± 37.9 mg/dL
- BG1 (Day 3, across meals): 170 ± 40.9 mg/dL
- ΔBG1 (Day 3, across meals): 51.8 ± 37.9 mg/dL
- BG1 [8]: 165 ± 42.1 mg/dL
- ΔBG1 [8]: 49.8 ± 39.0 mg/dL
- BG1.5 (Day 1, across meals): 156 ± 51.2 mg/dL
- ΔBG1.5 (Day 1, across meals): 47.5 ± 51.9 mg/dL
- BG1.5 (Day 2, across meals): 167 ± 48.3 mg/dL
- ΔBG1.5 (Day 2, across meals): 47.2 ± 44.8 mg/dL
- BG1.5 (Day 3, across meals): 167 ± 48.3 mg/dL
- ΔBG1.5 (Day 3, across meals): 48.9 ± 48.1 mg/dL
- BG1.5 [8]: 163 ± 49.3 mg/dL
- ΔBG1.5 [8]: 47.9 ± 48.2 mg/dL
- BG2 (Day 1, across meals): 152 ± 60.1 mg/dL
- ΔBG2 (Day 1, across meals): 43.7 ± 62.7 mg/dL
- BG2 (Day 2, across meals): 164 ± 54.2 mg/dL
- ΔBG2 (Day 2, across meals): 44.0 ± 51.2 mg/dL
- BG2 (Day 3, across meals): 164 ± 52.3 mg/dL
- ΔBG2 (Day 3, across meals): 46.2 ± 52.4 mg/dL
- BG2 [8]: 160 ± 55.7 mg/dL
- ΔBG2 [8]: 44.6 ± 55.6 mg/dL
- BG4 (Day 1, across meals): 139 ± 52.4 mg/dL
- ΔBG4 (Day 1, across meals): 29.7 ± 53.3 mg/dL
- BG4 (Day 2, across meals): 148 ± 59.4 mg/dL
- ΔBG4 (Day 2, across meals): 27.7 ± 56.8 mg/dL
- BG4 (Day 3, across meals): 153 ± 48.9 mg/dL
- ΔBG4 (Day 3, across meals): 35.1 ± 47.2 mg/dL
- BG4 [8]: 146 ± 53.7 mg/dL
- ΔBG4 [8]: 30.8 ± 52.3 mg/dL
- Intra-subject variability of BG (time 1 h, across all study days and meals): 20.2 %CV
- Intra-subject variability of BG (time 1.5 h, across all study days and meals): 24.5 %CV
- Intra-subject variability of ΔBG (time 2 h, across all study days and meals): 61.4 %CV
